Experimental data as given in ChEMBL document CHEMBL5390285, “Isolation and In Vitro and In Vivo Activity of Secondary Metabolites from Clerodendrum polycephalum Baker against Plasmodium Malaria Parasites” (J Nat Prod, 2023).
pIC50: −log10 of the molar value.

Columns and labels:
Plasmodium falciparum = assay: Antiplasmodial activity against synchronized ring stage Plasmodium falciparum 3D7 infected in human erythrocytes assessed as inhibition of parasite proliferation preincubated for 48 hrs followed by [3H]-hypoxanthine incorporation and measured after 24 hrs by microbeta liquid scintillation counter analysis; format: functional, organism-based
[1] = Cytotoxicity against human NFF cells assessed as growth inhibition incubated for 72 hrs by SRB assay; format: toxicity, cell-based
[2] = Selectivity index, ratio of IC50 for cytotoxicity against human NFF cells to the IC50 for antiplasmodial activity against Plasmodium falciparum 3D7 infected in human erythrocytes; format: toxicity, cell-based; conditions: read-out: Ratio IC50
Plasmodium berghei [3] = assay: (§1) In vivo antimalarial activity against Plasmodium berghei NK65 infected in Swiss albino mouse assessed as reduction in parasitemia in erythrocytes at 10 mg/kg, po administered once daily for 4 days and measured on day 5 post-infection by Giemsa staining based microscopic analysis relative to control; format: functional; parameters: scale not given: the % may be the effect or the level left; conditions: time 4 day
Plasmodium berghei [4] = assay: In vivo antimalarial activity against Plasmodium berghei NK65 infected in Swiss albino mouse assessed as reduction in parasitemia in erythrocytes at 20 mg/kg, po administered once daily for 4 days and measured on day 5 post-infection by Giemsa staining based microscopic analysis relative to control; format: functional; parameters: scale not given: the % may be the effect or the level left; conditions: time 4 day
Plasmodium berghei [5] = assay: as §1, with “chemosuppression of parasite” for “reduction in parasitemia”; format: functional; conditions: time 4 day
Plasmodium berghei [6] = assay: In vivo antimalarial activity against Plasmodium berghei NK65 infected in Swiss albino mouse assessed as chemosuppression of parasite in erythrocytes at 20 mg/kg, po once daily for 4 days and measured on day 5 post-infection by Giemsa staining based microscopic analysis relative to control; format: functional; conditions: time 4 day

CC1(C)CCC[C@@]2(C)C1=C(O)C(=O)c1c2c(O)c2oc(CO)cc2c1O
pIC50 (Plasmodium falciparum): 4.52

CC(=O)OC[C@@]12[C@@H](OC(C)=O)C[C@@H](C)[C@](C)(CCC3CCOC3=O)[C@H]1CCC[C@@]2(O)CCl (some centres not stated)
pIC50 (Plasmodium falciparum): < 4.30

CC(=O)OC[C@@]12[C@@H](OC(C)=O)C[C@@H](C)[C@](C)(CCC3CCOC3=O)[C@H]1CCC[C@@H]2C=O (some centres not stated)
pIC50 (Plasmodium falciparum): 4.56

C=CC1=C(C)C2=NC/1=C\C1=NC(=C\C3=C(C)C4=C(O)[C@H](C(=O)OC)/C(=C5/N/C(=C\2)[C@@H](C)[C@@H]5CCC(=O)OC)C4=N3)/C(CC)=C1C
pIC50 (Plasmodium falciparum): 5.35
IC50 at 72 h [1]: > 50 µM
selectivity ratio [2]: > 11
Activity (Plasmodium berghei [3]): 2.52%
Activity (Plasmodium berghei [4]): 1.5%
Activity (Plasmodium berghei [5]): 79%
Activity (Plasmodium berghei [6]): 87%

CC1(C)CCC[C@]2(C)c3c(c(O)c4cc(CO)oc4c3O)C(=O)C[C@@H]12
pIC50 (Plasmodium falciparum): < 4.40

CC(=O)OC[C@@]12[C@@H](OC(C)=O)C[C@@H](C)[C@](C)(CCC3CCOC3=O)[C@H]1CCC[C@@]21CO1 (some centres not stated)
pIC50 (Plasmodium falciparum): < 4.30

COc1ccc(-c2cc(=O)c3c(O)cc(O)cc3o2)cc1 [ACACETIN]
pIC50 (Plasmodium falciparum): > 4.40

CCN(CC)CCCC(C)Nc1ccnc2cc(Cl)ccc12 (configuration not stated) [CHLOROQUINE]
IC50 at 72 h [1]: 31.7 µM
Activity (Plasmodium berghei [3]): 1.78%
Activity (Plasmodium berghei [5]): 85%

CC1(C)C[C@H](O)C[C@@]2(C)OC(=O)C=C12 [LOLIOLIDE]
pIC50 (Plasmodium falciparum): < 4.30
